Results taken from EP3868394A1, “MONO- AND MULTI-TRIAZOLOMINIGASTRINS FOR TARGETING OF CCK2R-POSITIVE NEOPLASMS” (PAUL SCHERRER INSTITUT, priority 2020, dated 2021).
Read-outs that look alike come from different tables or passages of the source. Numbered stars: 1 amine (or outer) side, 2 acyl side, 3 side chain; on linkers, the order of the positions; unused ones are H or OH. Square brackets hold non-standard residues; d marks the D form. Peptide text beside a SMILES is read from it. * marks the point of attachment. DOTA = O=C(O)CN1CCN(CC(=O)O)CCN(CC(=O)*)CCN(CC(=O)O)CC1; X1 = O=C(Cn1cc([C@H](Cc2ccc(O)cc2)N[*:1])nn1)[*:2]; Nle = CCCC[C@H](N)C(=O)O

What was measured:
Blood plasma stability = format: in vitro ADME, human
Description: Stock solutions were prepared by dissolving the reference substances (Nle^15]-MG11 and PP-F11-N) or the triazolominigastrins (1 mg, 750 nmol) in ammonium acetate buffer (50 µL, 0.5 M, pH 5.5) and addition of water to a final peptide concentration of 250 µM (approx. 0.3 mg/mL). For in vitro experiments, DOTA-functionalized compounds (1 nmol, 4 µL of 250 µM stock solution) were added to a mixture of aq. HCl (22.5 µL, 0.05 M, pH 1.3), ammonium acetate buffer (10 µL, 0.5 M, pH 5.5) and aq. sodium ascorbate (5 µL, 0.5 M). 20-25 MBq of [^177Lu]LuCl3 (ca. 2.5 µL, in 0.04 M HCl, 20-25 MBq/nmol) were added and the mixtures were heated to 95 °C for 20 min in a heating block. After labeling, a 1 µL aliquot of the labeling mixture was added to aq. DTPA (200 µL, 25 µM) for quality control by γ-HPLC.
The ^177Lu-labeled compounds were diluted with 0.9% NaCl to a concentration of 3.75 µM and incubated (375 pmol, 100 µL, 7.5-12 MBq) in human blood plasma (1.5 mL) at 37 °C. At different time points (0.5, 1, 2, 4, 6 and 24 h) aliquots (75 µL) were taken and the proteins were precipitated in CH3CN (100 µL) and centrifuged (2 min, 14680 rpm, rt). The supernatant (75 µL) was diluted with water (75 µL) and analyzed by γ-HPLC. One phase decay nonlinear regression (A = A0 ^∗ e^-kt) was used to calculate the half-lifes (t1/2) of the peptide conjugates with GraphPad Prism (n=2-3).

CCK2R-positive tumors = conditions: cited from earlier work
A431-CCK2R cells = experiment: Cell internalization experiments with 177Lu-labeled conjugates; format: cell-based, Human
Description: Stock solutions were prepared by dissolving the reference substances (Nle^15]-MG11 and PP-[…]) or the triazolominigastrins (1 mg, 750 nmol) in ammonium acetate buffer (50 μL, 0.5 M, pH 5.5) and addition of water to a final peptide concentration of 250 μM (approx. 0.3 mg/mL). For in vitro experiments, DOTA-functionalized compounds (1 nmol, 4 μL of 250 μM stock solution) were added to a mixture of aq. HCl (22.5 μL, 0.05 M, pH 1.3), ammonium acetate buffer (10 μL, 0.5 M, pH 5.5) and aq. sodium ascorbate (5 μL, 0.5 M). 20-25 MBq of [^177Lu]LuCl3 (ca. 2.5 μL, in 0.04 M HCl, 20-25 MBq/nmol) were added and the mixtures were heated to 95 °C for 20 min in a heating block. After labeling, a 1 μL aliquot of the labeling mixture was added to aq. DTPA (200 μL, 25 μM) for quality control by γ-HPLC. Human epidermoid carcinoma cells A431 stably transfected to express the CCK2R (A431-CCK2R cells)[Aloj L., Journal of Nuclear Medicine, 2004, 45, 485-494] were grown in monolayers in NunclonTM Delta treated cell culture flasks in humidified air at 5% CO2 and 37 °C. The cells were maintained in the culture medium DMEM (high glucose (4.5 g/L)) supplemented with 20 mM L-Gln and 10% FCS. The culture was passaged regularly at 80 to 90% confluency using a 0.25% trypsin 0.38‰ EDTA solution. Assays were conducted in the assay medium DMEM (high glucose) containing 0.1% BSA. On the day prior to the experiment A431-CCK2R cells were placed in six-well plates (0.85·10^6 cells/well) in cell culture medium and incubated overnight for attachment. On the day of the experiment, the medium was removed and the cells were washed twice with 1 mL PBS. The plates were put on ice for preparation. 0.9 mL of assay medium was dispensed to all wells except the ones for nonspecific binding. 0.2 pmol of ^177Lu-labeled conjugates (100 μL, 2 nM in assay medium, ca. 4.2 kBq) were dispensed to all wells. For the determination of nonspecific binding, a 5000-fold excess of […] (1 nmol, 100 μL, 10 μM in assay medium) was added to 0.8 mL of assay medium containing the ^177Lu-labeled conjugates. The plates were incubated at 37 °C in 5% CO2 to allow binding and internalization. The process was stopped after 30, 60, 120, and 240 min by collection of the supernatant. The cells were washed twice with PBS (each 0.6 mL). The combined supernatants represent the free, unbound fraction of radioactivity. Membrane-bound activity was determined by incubating the cells with cold saline glycine buffer (0.6 mL, 0.05 M, pH 2.8) twice for 5 min at rt. The internalized fraction was isolated by two cycles of cell lysis with NaOH (each 0.6 mL, 1 M, 10 min, rt). The radioactivity of the fractions was measured by a COBRA-II gamma counter and is represented as percentage of total applied radioactivity dosage (n=3-5 in triplicates).

[1] = compared with PP-F11N, Figure 1
[2] = compared with [Nle^15]MG11, Figure 1

CCCC[C@H](NC(=O)[C@H](Cc1c[nH]c2ccccc12)NC(=O)Cn1cc([C@H](Cc2ccc(O)cc2)NC(=O)[C@H](C)NC(=O)[C@@H](CCC(=O)O)NC(=O)[C@@H](CCC(=O)O)NC(=O)[C@@H](CCC(=O)O)NC(=O)[C@@H](CCC(=O)O)NC(=O)[C@@H](CCC(=O)O)NC(=O)[C@@H](CCC(=O)O)NC(=O)CN2CCN(CC(=O)O)CCN(CC(=O)O)CCN(CC(=O)O)CC2)nn1)C(=O)N[C@@H](CC(=O)O)C(=O)N[C@@H](Cc1ccccc1)C(N)=O [NMG 6, DOTA-(DGlu)5-DGlu-Ala-Tyr-Ψ[Tz]-Gly-Trp-Nle-Asp-Phe-NH2]
stability in plasma over 24 hours (Blood plasma stability): high stability

CCCC[C@H](NC(=O)[C@H](Cc1c[nH]c2ccccc12)NC(=O)CNC(=O)[C@H](Cc1ccc(O)cc1)NC(=O)[C@H](C)NC(=O)[C@@H](CCC(=O)O)NC(=O)[C@@H](CCC(=O)O)NC(=O)[C@@H](CCC(=O)O)NC(=O)[C@@H](CCC(=O)O)NC(=O)[C@@H](CCC(=O)O)NC(=O)[C@@H](CCC(=O)O)NC(=O)CN1CCN(CC(=O)O)CCN(CC(=O)O)CCN(CC(=O)O)CC1)C(=O)N[C@@H](CC(=O)O)C(=O)N[C@@H](Cc1ccccc1)C(N)=O [PP-F11N, reference compound]
tumor-to-kidney ratio (CCK2R-positive tumors; according to WO 2015/067473 A1): excellent
stability in plasma over 24 hours (Blood plasma stability; 177Lu-labeled, human blood plasma, 37 °C, over 24 hours, Figure 3): high stability

CCCC[C@H](NC(=O)[C@H](Cc1c[nH]c2ccccc12)NC(=O)Cn1cc([C@H](Cc2ccc(O)cc2)NC(=O)[C@H](C)NC(=O)[C@@H](CCC(=O)O)NC(=O)CN2CCN(CC(=O)O)CCN(CC(=O)O)CCN(CC(=O)O)CC2)nn1)C(=O)N[C@@H](CC(=O)O)C(=O)N[C@@H](Cc1ccccc1)C(N)=O [TZMG 6, DOTA-DGlu-Ala-Tyr-Ψ[Tz]-Gly-Trp-Nle-Asp-Phe-NH2] ({DOTA}-[dE]A[X1]W[Nle]DF-NH2)
stability in plasma (Blood plasma stability): reduced stability

CCCC[C@H](NC(=O)[C@H](Cc1c[nH]c2ccccc12)NC(=O)Cn1cc([C@H](Cc2ccc(O)cc2)n2cc([C@H](C)n3cc([C@@H](CCC(=O)O)NC(=O)CN4CCN(CC(=O)O)CCN(CC(=O)O)CCN(CC(=O)O)CC4)nn3)nn2)nn1)C(=O)N[C@@H](CC(=O)O)C(=O)N[C@@H](Cc1ccccc1)C(N)=O [TZMG 876, DOTA-DGlu-Ψ[Tz]-Ala-Ψ[Tz]-Tyr-Ψ[Tz]-Gly-Trp-Nle-Asp-Phe-NH2]
stability in plasma (Blood plasma stability): significantly higher stability

DOTA-(DGlu)5-DGlu-Ψ[Tz]-Ala-Tyr-Ψ[Tz]-Gly-Trp-Nle-Asp-Phe-NH2 [NMG 86]
stability in plasma over 24 hours (Blood plasma stability): high stability
cell internalization after 4 h (A431-CCK2R cells; [1]): higher
cell internalization kinetics (A431-CCK2R cells; [1]): faster

DOTA-DGlu-DGlu-DGlu-DGlu-DGlu-DGlu-Ala-Tyr-Gly-Trp-Met-Asp-Phe-NH2 [PP-F11]
accumulation in the tumor (CCK2R-positive tumors; [^177Lu]Lu-PP-F11): high favorable accumulation
accumulation in the kidneys (CCK2R-positive tumors; in vivo): low accumulation

DOTA-DGlu-Ψ[Tz]-Ala-Tyr-Ψ[Tz]-Gly-Trp-Nle-Asp-Phe-NH2 [TZMG 86]
stability in plasma (Blood plasma stability): significantly higher stability
cell internalization after 4 h (A431-CCK2R cells; [2]): higher
cell internalization kinetics (A431-CCK2R cells; [2]): faster
